From ChEMBL document CHEMBL1759919, “1α,25-Dihydroxyvitamin D3-3β-bromoacetate, a potential cancer therapeutic agent: synthesis and molecular mechanism of action” (Bioorg Med Chem Lett, 2011)
Activity calls are given as the source filed them. No cut-off for these calls is given here.

Columns and labels:
Assay type in all cases: functional, cell-based
A498 [1] = assay: Induction of CYP24 mRNA expression in human A498 cells at 10^-8 M after 16 hrs by RT-PCR analysis
A498 [2] = assay: Induction of CYP24 mRNA expression in human A498 cells at 10^-6 M after 24 hrs by RT-PCR analysis
A498 [3] = assay: Induction of CYP24 mRNA expression in human A498 cells at 10^-8 M after 4 hrs by RT-PCR analysis

Row | SMILES | Activity (A498 [1]) | Activity (A498 [2]) | Activity (A498 [3])
1 | C=C1/C(=C\C=C2/CCC[C@]3(C)[C@@H]([C@H](C)CCCC(C)(C)O)CC[C@@H]23)C[C@@H](OC(=O)CBr)C[C@@H]1O | Active | Active | 
2 | C=C1/C(=C\C=C2/CCC[C@]3(C)[C@@H]([C@H](C)CCCC(C)(C)O)CC[C@@H]23)C[C@@H](O)C[C@@H]1O | Active |  | Active
